According to patent publication US20130096098A1, “Light Insensitive Silver(i) Cyanoximates As Antimicrobial Agents For Indwelling Medical Devices” (MISSOURI STATE UNIVERSITY, priority 2011, published 2013):
Where two headings read alike, the source gives them in different places.

Experiments:
bacterial strains = assay: Antibacterial tests in solutions, microplate Alamar Blue assay (MIC); format: cell-based; conditions: stock in DMSO, 37° C., 48 h, tested infection agents
Description: Antimicrobial Activity Studies. Bacterial Strains and Growing Conditions. The strains of bacteria were obtained from Polish Collection of Microorganisms (PCM) of the Institute of Immunology and Experimental Therapy of Polish Academy of Sciences and were used throughout this study. Both Gram-negative and Gram-positive bacteria, as well as yeasts, commonly isolated from patients suffering implant-related infections, were chosen for experiments. They included Escherichia coli PCM 1144 (ATCC #10536), Klebsiella pneumoniae PCM 57, Proteus sp. PCM 542 (ATCC #13315), Pseudomonas aeruginosa PCM 2563 (ATCC #15442), Streptococcus mutans PCM 2502, Staphylococcus aureus PCM 2602 (ATCC #6538), Enterococcus hirae PCM 2559 (ATCC #10541), Mycobacterium fortuitum PCM 672, Candida albicans PCM 2566 (ATCC #10231). […]
Antibacterial Tests in Solutions. The antibacterial activities of synthesized Ag(I) cyanoximates were determined against bacterial strains by the microplate Alamar Blue assay. […] The fluorescence was measured using Victor^2 apparatus (Wallac, Perkin-Elmer), and the experiment was repeated three times. […] Means and standard error values were determined using the Microsoft Excel.

[1] = test system: inoculated microorganisms; assay: Antibacterial tests in solid state: soaked dried filter paper disks on agar plates; format: cell-based; conditions: deposited on filter papers from DMF 10 mg/mL, 20 μL; 37° C., 24 h
Description: (§1) Antimicrobial Activity Studies. Bacterial Strains and Growing Conditions. The strains of bacteria were obtained from Polish Collection of Microorganisms (PCM) of the Institute of Immunology and Experimental Therapy of Polish Academy of Sciences and were used throughout this study. Both Gram-negative and Gram-positive bacteria, as well as yeasts, commonly isolated from patients suffering implant-related infections, were chosen for experiments. They included Escherichia coli PCM 1144 (ATCC #10536), Klebsiella pneumoniae PCM 57, Proteus sp. PCM 542 (ATCC #13315), Pseudomonas aeruginosa PCM 2563 (ATCC #15442), Streptococcus mutans PCM 2502, Staphylococcus aureus PCM 2602 (ATCC #6538), Enterococcus hirae PCM 2559 (ATCC #10541), Mycobacterium fortuitum PCM 672, Candida albicans PCM 2566 (ATCC #10231). In addition, several multidrug-resistant bacterial strains isolated from patients with nosocomial infections K. pneumoniae 244, P. aeruginosa 2314, AMA, Enterococcus faecium VRE (vancomycin-resistant), Streptococcus pneumoniae PCI, S. aureus MRSA (methicillin-resistant), S. aureus MRSC (coagulase-negative methicillin-resistant), were also included in the in vitro testing. Bacteria were cultivated on sugar broth at 37° C. for 24 h in aerobic conditions, and prior to use in tests, cells were diluted with the same medium to obtain suspensions of about 2×10^5 cfu/mL.
Antibacterial Tests in Solid State: Soaked Dried Paper Disks and Pellets. Solutions (or suspensions if the compound was not completely solubilized) of studied Ag(I) cyanoximates in DMF at 10 mg/mL concentration were prepared and 20 μL of it was placed on filter paper discs (diameter 12 mm). These discs were dried for ˜2 h in the dark prior to testing where each filter was placed on agar plates with inoculated microorganisms, which were then incubated at 37° C. for 24 h. Thereafter, microorganisms' growth inhibition zone (if present) was measured (in mm).

Pseudomonas aeruginosa = assay: Antibacterial tests in solid state: pressed AgL pellets on agar plates; format: cell-based
Description: as §1
(§2) Also, Ag(I) cyanoximates were pressed into 12 mm in diameter pellets using a Carver 20 tons hydraulic press. The method of testing pellets was similar to the one described above. Solid pellets of AgL were carefully placed on agar plates with inoculated bacteria. The exposition time was 24 h at 37° C., after which inhibition zones were measured and results were documented by digital photography.

Mycobacterium fortuitum = assay: as above; format: cell-based
Description: as §1, §2

[2] = UV-light stability studies, low-pressure Hg lamp 254 nm; format: physicochemical
Protocol: Photophysical Measurements. Light sensitivity and stability of synthesized Ag(I) cyanoximates was studied at 296 K using a low-pressure Hg lamp with >85% output at λmax=254 nm where the intensity of light was measured with a UVX radiometer (UK). After 4 min warm-up time, this lamp generated a steady flux of UV-radiation that was equal to the dose of 10.13 J/cm^2 within 30 min. Prior to these investigations, complexes were thoroughly dried under high vacuum (<10^−4 Torr) and ground into a powder using an agate mortar. This made it easy to apply these compounds to paper, adhesive tape, or cardboard. Samples of complex were spread on white cardboard with an exposed circular area (via a mask) of ˜3 cm. The radiation source was positioned 1 cm from the sample. A pristine white silver chloride prepared in the dark was used as a control substance to access the light stability of silver(I) cyanoximates. Digital pictures of irradiated samples were taken every 30 min using a stationary digital camera (Kodak DX7630; 6.1 Mpx), and native images were cropped to square shape without any contrast or brightness editing using Samsung Digimax Viewer 2.0 software.

[3] = 12 mm pressed pellets, 24 h at 37° C., FIG. 10

With “Silver(I) α-Oximido-(2-pivaloyl)acetonitrile [Ag(PiCO)]” the “minimal inhibitory concentration (MIC), ranking” value (bacterial strains) was “lowest MIC value” and the “effect on bacterial growth on solid media (inhibition zones)” value (from here on “effect … (inhibition zones)”) [1] was “exhibit antimicrobial activity in the solid state”.
For `Cn1c(C(C#N)=N[O-])nc2ccccc21.[Ag+]` [Ag(BIMCO), Silver(I) α-Oximido-(2-[N-methyl]benzoimidazolyl)acetonitrile], the “effect … (inhibition zones)” value [1] was “exhibit antimicrobial activity in the solid state”.
With `CN(C)C(=O)C(C#N)=N[O-].[Ag+]` [Ag(DCO), Silver(I) α-Oximido-([N,N-dimethylamine]acetamide)acetonitrile] the “minimal inhibitory concentration (MIC), ranking” value (bacterial strains) was “lowest MIC value”, the growth inhibition zone (Pseudomonas aeruginosa) was “clear inhibition zones” and the growth inhibition zone (Mycobacterium fortuitum) was “clear inhibition zones”. The “effect … (inhibition zones)” value [1] was “exhibit antimicrobial activity in the solid state” and the “stability toward short wavelength UV-radiation” value [2] was “resistance”.
For `N#CC(=N[O-])c1nc2ccccc2o1.[Ag+]` [Ag(BOCO), 2-(Oximido)-2-benzoxazoleacetonitrile Silver(I)], the growth inhibition zone (Pseudomonas aeruginosa; [3]) was “clear inhibition zones”, the growth inhibition zone (Mycobacterium fortuitum; [3]) was “clear inhibition zones” and the “effect … (inhibition zones)” value [1] was “exhibit antimicrobial activity in the solid state”.
In the case of “Silver(I) Nitrosodicyanomethanide [Ag(CCO)]”, the growth inhibition zone (Pseudomonas aeruginosa; [3]) is reported as “clear inhibition zones”, the growth inhibition zone (Mycobacterium fortuitum; [3]) is reported as “clear inhibition zones” and the “effect … (inhibition zones)” value [1] is reported as “exhibit antimicrobial activity in the solid state”. For the same compound, the “stability toward short wavelength UV-radiation” value ([2]; solid powders, 254 nm, 296 K, FIG. 8) was “resistance”.
In the case of `N#CC(=N[O-])C(=O)c1ccccc1.[Ag+]` [Ag(BCO), Silver(I) α-Oximido-(2-benzoyl)acetonitrile], the “effect … (inhibition zones)” value [1] is reported as “exhibit antimicrobial activity in the solid state”.
For `CCOC(=O)C(C#N)=N[O-].[Ag+]` [Ag(ECO), Silver(I) α-Oximido-(ethylacetoxy)acetonitrile], the growth inhibition zone (Pseudomonas aeruginosa; [3]) was “clear inhibition zones”, the growth inhibition zone (Mycobacterium fortuitum; [3]) was “clear inhibition zones” and the “effect … (inhibition zones)” value [1] was “exhibit antimicrobial activity in the solid state”.
With “Silver(I) α-Oximido-(acetamide)acetonitrile [Ag(ACO)]” the “stability toward short wavelength UV-radiation” value [2] was “resistance”.
In the case of `[Cl][Ag]` [AgC1, silver chloride, reference compound], the “stability toward short wavelength UV-radiation” value [2] is reported as “completely darken”.
